Measurements from PubChem BioAssay AID248 (DTP/NCI, 2004).
Where “and” joins values, the source holds several entries; their conditions need not be identical. Equal entries are not always repeated. Inconclusive results and toxic doses are left out. Rule as the data show it: active = T/C of 150% or more; inactive = T/C below 125%.

Test system: L1210 leukemia ip in BDF1 mice, survival T/C
Test: NCI In Vivo Anticancer Drug Screen. Data for tumor model L1210 Leukemia (intraperitoneal) in B6D2F1 (BDF1) mice
Conditions: endpoint: mean survival time, higher = longer survival
Procedure, shortened: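 Mice bearing the transplanted tumor received compound or vehicle. Survival of the treated group was divided by that of the vehicle-treated control group to give the ratio.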

[1] = dose: 75.0 mg/kg/injection, schedule: Q01DX001 (ip), vehicle: saline
[2] = dose: 150.0 mg/kg/injection, schedule: Q01DX001 (ip), vehicle: saline
[3] = dose: 300.0 mg/kg/injection, schedule: Q01DX001 (ip), vehicle: saline
[4] = dose: 100.0 mg/kg/injection, schedule: Q01DX001 (ip), vehicle: Klucel (hydroxypropylcellulose) (HPC)
[5] = dose: 200.0 mg/kg/injection, schedule: Q01DX001 (ip), vehicle: Klucel (hydroxypropylcellulose) (HPC)
[6] = dose: 400.0 mg/kg/injection, schedule: Q01DX001 (ip), vehicle: Klucel (hydroxypropylcellulose) (HPC)
[7] = dose: 100.0 mg/kg/injection, schedule: Q01DX001 (ip), vehicle: saline
[8] = dose: 200.0 mg/kg/injection, schedule: Q01DX001 (ip), vehicle: saline
[9] = dose: 400.0 mg/kg/injection, schedule: Q01DX001 (ip), vehicle: saline
[10] = dose: 100.0 mg/kg/injection, schedule: Q04DX003 (ip), vehicle: saline with Tween-80
[11] = dose: 200.0 mg/kg/injection, schedule: Q04DX003 (ip), vehicle: saline with Tween-80
[12] = dose: 400.0 mg/kg/injection, schedule: Q04DX003 (ip), vehicle: saline with Tween-80
[13] = dose: 100.0 mg/kg/injection, schedule: Q01DX009 (ip), vehicle: saline with Tween-80
[14] = dose: 200.0 mg/kg/injection, schedule: Q01DX009 (ip), vehicle: saline with Tween-80
[15] = dose: 400.0 mg/kg/injection, schedule: Q01DX009 (ip), vehicle: saline with Tween-80
[16] = dose: 25.0 mg/kg/injection, schedule: Q01DX009 (ip), vehicle: saline
[17] = dose: 50.0 mg/kg/injection, schedule: Q01DX009 (ip), vehicle: saline
[18] = dose: 100.0 mg/kg/injection, schedule: Q01DX009 (ip), vehicle: saline
[19] = dose: 25.0 mg/kg/injection, schedule: Q04DX002 (ip), vehicle: saline
[20] = dose: 50.0 mg/kg/injection, schedule: Q04DX002 (ip), vehicle: saline

Measured: T/C

CCCCC=C(C1CCCCC1)C1CCCCC1
inactive: [1] 104 % of control | dose: 75.0 mg/kg/injection, schedule: Q04DX003 (ip), vehicle: saline 92 % of control | [2] 93 % of control | dose: 150.0 mg/kg/injection, schedule: Q04DX003 (ip), vehicle: saline 101 % of control | [3] 91 % of control | dose: 300.0 mg/kg/injection, schedule: Q04DX003 (ip), vehicle: saline 100 % of control

CC(N)CCCO (stereo unspecified)
inactive: dose: 5.0 mg/kg/injection, schedule: Q01DX001 (ip), vehicle: saline 103 % of control | dose: 10.0 mg/kg/injection, schedule: Q01DX001 (ip), vehicle: saline 97 % of control | dose: 20.0 mg/kg/injection, schedule: Q01DX001 (ip), vehicle: saline 103 % of control | dose: 40.0 mg/kg/injection, schedule: Q01DX001 (ip), vehicle: saline 101 % of control | dose: 80.0 mg/kg/injection, schedule: Q01DX001 (ip), vehicle: saline 103 % of control

O=c1oc(-c2ccccc2)c(-c2ccccc2)o1
inactive: dose: 100.0 mg/kg/injection, schedule: Q04DX002 (ip), vehicle: other 100 % of control | dose: 200.0 mg/kg/injection, schedule: Q04DX002 (ip), vehicle: other 103 % of control | dose: 400.0 mg/kg/injection, schedule: Q04DX002 (ip), vehicle: other 96 % of control

N=C1C(=O)c2ccccc2-c2ccccc21
inactive: [4] 97 % of control | [5] 98 % of control | [6] 98 % of control

S=C=Nc1cccc(N=C=S)c1
inactive: dose: 5.0 mg/kg/injection, schedule: Q01DX001 (ip), vehicle: acetone 105 % of control | dose: 10.0 mg/kg/injection, schedule: Q01DX001 (ip), vehicle: acetone 124 % of control | dose: 20.0 mg/kg/injection, schedule: Q01DX001 (ip), vehicle: acetone 100 % of control

Cc1ccc2c(C)c3ccc4ccccc4c3c[n+]2c1
inactive: dose: 3.13 mg/kg/injection, schedule: Q01DX009 (ip), vehicle: saline with Tween-80 98 % of control | dose: 6.2 mg/kg/injection, schedule: Q04DX003 (ip), vehicle: Klucel (hydroxypropylcellulose) (HPC) 111 % of control | dose: 6.25 mg/kg/injection, schedule: Q01DX009 (ip), vehicle: saline with Tween-80 107 % of control | dose: 12.5 mg/kg/injection, schedule: Q01DX009 (ip), vehicle: saline with Tween-80 107 % of control and 113 % of control | dose: 12.5 mg/kg/injection, schedule: Q04DX003 (ip), vehicle: Klucel (hydroxypropylcellulose) (HPC) 104 % of control | dose: 25.0 mg/kg/injection, schedule: Q04DX003 (ip), vehicle: Klucel (hydroxypropylcellulose) (HPC) 111 % of control | dose: 50.0 mg/kg/injection, schedule: Q04DX003 (ip), vehicle: Klucel (hydroxypropylcellulose) (HPC) 117 % of control | [7] 123 % of control | [8] 104 % of control | [9] 104 % of control

CCCCCCCCCCCCCCCCC(C(=O)OCC)C(=O)c1ccccc1 (stereo unspecified)
inactive: [10] 95 % of control | [11] 95 % of control | [12] 91 % of control

CCCC(=O)C(C)C(=O)C(F)(F)F.CCCC(=O)C(C)C(=O)C(F)(F)F.CCCC(=O)C(C)C(=O)C(F)(F)F.[Er] (stereo unspecified)
inactive: dose: 100.0 mg/kg/injection, schedule: Q01DX009 (ip), vehicle: Klucel (hydroxypropylcellulose) (HPC) 116 % of control | dose: 100.0 mg/kg/injection, schedule: Q04DX003 (ip), vehicle: Klucel (hydroxypropylcellulose) (HPC) 98 % of control | dose: 200.0 mg/kg/injection, schedule: Q01DX009 (ip), vehicle: Klucel (hydroxypropylcellulose) (HPC) 102 % of control | dose: 200.0 mg/kg/injection, schedule: Q04DX003 (ip), vehicle: Klucel (hydroxypropylcellulose) (HPC) 94 % of control | dose: 400.0 mg/kg/injection, schedule: Q01DX009 (ip), vehicle: Klucel (hydroxypropylcellulose) (HPC) 113 % of control | dose: 400.0 mg/kg/injection, schedule: Q04DX003 (ip), vehicle: Klucel (hydroxypropylcellulose) (HPC) 94 % of control

Cn1c2c(c(=O)[nH]c1=O)OCN(Cc1ccccc1)C2
inactive: dose: 50.0 mg/kg/injection, schedule: Q01DX001 (ip), vehicle: carboxymethylcellulose (CMC) 91 % of control | dose: 100.0 mg/kg/injection, schedule: Q01DX001 (ip), vehicle: carboxymethylcellulose (CMC) 100 % of control | dose: 200.0 mg/kg/injection, schedule: Q01DX001 (ip), vehicle: carboxymethylcellulose (CMC) 94 % of control | dose: 400.0 mg/kg/injection, schedule: Q01DX001 (ip), vehicle: carboxymethylcellulose (CMC) 100 % of control

O=C(O)c1ccccc1Cc1cccc2c(Cl)cccc12
inactive: [4] 97 % of control | [5] 98 % of control | [6] 101 % of control

O=C(O)C1C(Cl)C(Cl)C1C(=O)O (stereo unspecified)
inactive: [1] 104 % of control | [2] 101 % of control | [3] 96 % of control

CCOC(=O)C1CC(=O)NC(N)=N1 (stereo unspecified)
inactive: dose: 100.0 mg/kg/injection, schedule: Q01DX Z (ip), vehicle: saline 95 % of control | dose: 200.0 mg/kg/injection, schedule: Q01DX Z (ip), vehicle: saline 100 % of control

O=c1[nH]cnc2nc(SCc3ccccc3NCBr)[nH]c12
inactive: dose: 31.3 mg/kg/injection, schedule: Q04DX002 (ip), vehicle: Klucel (hydroxypropylcellulose) (HPC) 91 % of control | dose: 62.5 mg/kg/injection, schedule: Q04DX002 (ip), vehicle: Klucel (hydroxypropylcellulose) (HPC) 91 % of control | dose: 125.0 mg/kg/injection, schedule: Q04DX002 (ip), vehicle: Klucel (hydroxypropylcellulose) (HPC) 88 % of control

O=C(C=C(C(F)(F)F)C(F)(F)F)c1ccccc1[N+](=O)[O-]
inactive: dose: 6.25 mg/kg/injection, schedule: Q01DX009 (ip), vehicle: other 96 % of control | dose: 12.5 mg/kg/injection, schedule: Q01DX009 (ip), vehicle: other 102 % of control | dose: 25.0 mg/kg/injection, schedule: Q01DX009 (ip), vehicle: other 102 % of control

OCC1OCOC2COCOC12 (stereo unspecified)
inactive: [13] 94 % of control | [14] 98 % of control | [15] 104 % of control

O=C(C[n+]1ccccc1)N/N=C/c1ccc(Cl)c(Cl)c1
inactive: [16] 94 % of control | [17] 102 % of control | [18] 102 % of control

O=C(CCN1CCCCC1)c1cc(Cl)ccc1Cl
inactive: dose: 12.5 mg/kg/injection, schedule: Q01DX009 (ip), vehicle: saline 93 % of control | [16] 97 % of control and 98 % of control | [19] 103 % of control | [17] 93 % of control | [20] 98 % of control | [18] 91 % of control | dose: 100.0 mg/kg/injection, schedule: Q04DX002 (ip), vehicle: saline 100 % of control and 88 % of control

CCOC(=O)c1cnc(SC)nc1Sc1ccc(Cl)cc1
inactive: [13] 96 % of control | [10] 96 % of control | [14] 94 % of control | [11] 96 % of control | [15] 98 % of control | [12] 94 % of control

CC(F)C1CCCC(F)C1 (stereo unspecified)
inactive: [7] 103 % of control | [8] 100 % of control | [9] 105 % of control

N=C(N)SCc1ccc(Br)cc1
inactive: [7] 104 % of control | [8] 112 % of control

COc1cc([N+](=O)[O-])cc2c(C)cc(=O)[nH]c12
inactive: [7] 95 % of control | [18] 103 % of control | [8] 99 % of control | dose: 200.0 mg/kg/injection, schedule: Q01DX009 (ip), vehicle: saline 92 % of control | [9] 93 % of control | dose: 400.0 mg/kg/injection, schedule: Q01DX009 (ip), vehicle: saline 93 % of control

COC1OC2COC(c3ccccc3)OC2C(OC(=O)c2ccccc2)C1OC(=S)SCc1ccccc1 (stereo unspecified)
inactive: dose: 12.5 mg/kg/injection, schedule: Q04DX002 (ip), vehicle: saline 107 % of control | [19] 104 % of control | [20] 104 % of control

CC[N+](C)(CC)CCOC(=O)c1ccccc1Oc1ccc(C)cc1
inactive: dose: 100.0 mg/kg/injection, schedule: Q04DX003 (ip), vehicle: saline 96 % of control
